Data from patent US20240226041A1, “METHODS AND COMPOSITIONS FOR TREATMENT OF NEUROPATHIC PAIN USING STAT3 INHIBITORS” (priority 2021, published 2024).
“Also recorded” adds a separate entry of the source.

How the values were obtained:
male C57BL/6 mice = test: Mechanical sensitivity (von Frey) in mice given TTI-101 alone; format: in vivo, mouse; conditions: 50 mg/kg i.p. every other day, 7 doses
Description: Data were analyzed by two-way ANOVA repeated measures. Time: P<0.001; Group: P<0.001; Interaction P<0.001. **P<0.01 Tukey multiple comparison test. Data are from a representative experiment out of two with similar results.
Peripheral neuropathy has been observed with several small-molecule STAT3 inhibitors in clinical-stage development (Bendell et al., 2014; Genini et al., 2017; Ogura et al., 2015). […] This model was selected because it was shown previously that it is mediated by mitochondrial damage in the peripheral nervous system (Krukowski et al., 2017; Maj, Ma, Krukowski, Kavelaars & Heijnen, 2017). […] (FIG. 12).
Pain measurements and chemotherapy-induced peripheral neuropathy (CIPN).

DRG transcriptome = test: RNA-seq and IPA analysis of dorsal root ganglia of cisplatin-treated mice; format: in vivo, mouse
From the text: Expression of 1,973 genes was changed in response to cisplatin when compared to the PBS mice (PBS vs. Cis; n=3 male mice per group). […] A cutoff of (−0.2<log 2 Fold Change <0.2) and p=0.1 was used for the analysis. […] Gray indicates effect cannot be predicted.
The mechanistic network of four regulators identified STAT3 as an intermediate regulator. […] For example, for the TP53 network, 14 regulators were part of the mechanistic network which together influence expression of 481 genes and out of these 481 genes, 64 target genes are controlled by STAT3.
RNA-seq and transcriptome analysis of dorsal root ganglion (DRG). […] Total RNA was isolated with the RNeasy MinElute Cleanup Kit (Qiagen, Hilden, Germany). Libraries were prepared with the Stranded mRNA-Seq kit (Kapa Biosystems, Wilmington, MA) following the manufacturer's guidelines. Stranded-mRNA seq was performed with a HiSeq4000 Sequencer (Illumina, San Diego, CA) with 76nt PE format by the RNA Sequencing Core at MD Anderson Cancer Center. Data analysis was performed as previously described (Chiu et al., 2018; Ma et al., 2019). Briefly, expression data of three samples per group were analyzed in R using bioconductor packages. STAR was used for alignment of paired-end reads to the mm10 version of the mouse reference genome; feature Counts was used to assign mapped sequence reads to genomic features, and DESeq2 was used to identify differentially expressed genes (padj<0.05). Quality check of raw and aligned reads was performed with FastQC and Qualimap. Next, we used Ingenuity Pathway Analysis (IPA; Qiagen Inc., https://www.qiagenbioinformatics.com/products/ingenuity-pathway-analysis/) for analysis of the canonical pathways implicated by cisplatin-induced transcriptome changes in DRG.

[1] = test system: bone marrow-derived macrophages (BMDM); test: Example 5: bone marrow-derived macrophage inflammation and ROS production after STAT3 activation; format: cell-based; conditions: pre-incubation 0, 1, 3, 10, and 30 μM for one hour before Ang II or cytokines
Description: STAT3 is activated within BMDM in vitro by addition of Ang II (0.1-1 μM for 24 h), or using a cocktail of inflammatory mediators. […] The % of F4/80+ macrophages containing elevated levels of the fluorescent ROS-sensitive dye DCFDA is analyzed. The levels of pY-STAT3 in BMDM are determined. The BMDM cytokine expression pattern at the end of the culture period is assessed by intracellular fluorescence for cytosolic IL-10, IL-4, TNF-a and IL-1b.

mice = test: Example 6: mouse chronic constriction injury (CCI) model; format: in vivo
Description: CCI surgery is carried out in mice. Analgesia is limited to perioperative administration of buprenorphine SR (0.05 mg/kg SQ). […] Animals then are examined for behavioral pain sensitivity. All experiments are performed by observers blinded to the drug formulation administered. This is done from baseline (8 weeks)—prior to nerve injury—then weekly thereafter until 16 weeks of age. […] Anticoagulated blood is used to measure levels of pro- and anti-inflammatory cytokines. One portion of each SN and DRG is snap-frozen and another portion placed in formalin, then paraffin imbedded (FFPE). Cryotome sections of the snap-frozen tissue are used to generate protein lysates for measurement of pY-STAT3, IL-1B, and IL-6 by Luminex, and RNA for RNA-seq analysis. […] Microtome sections of FFPE blocks are H&E stained and undergo immunohistochemistry staining and scoring for pY-STAT3, CD68 (macrophages), PGP9.5 (sensory nerves) and GAP43 (regenerating nerves). Detection of oxidative stress in sciatic nerve and DRG via IHC for nitrotyrosine or 4-hydroxynonenal adducts and MnSOD is carried out. In a subset of mice, characterization of SN and DRG macrophage phenotype is analyzed using flow cytometry with conjugated antibodies against CD86, F4/80, CD163 and CD206.

[2] = Cis+TTI-101 vs. cisplatin alone
[3] = 100 mg/kg oral gavage daily for 5 days

With `COc1ccc(S(=O)(=O)Nc2cc(-c3c(O)ccc4ccccc34)c(O)c3ccccc23)cc1` [TTI-101] as the compound, how does the “mechanical sensitivity / mechanical allodynia caused by compound alone” value (male C57BL/6 mice) read?
Its value is “had no effect on mechanical sensitivity; also recorded: does not cause mechanical allodynia”.

And the “genes down in DRG” value (DRG transcriptome; [2])?
The value was 1,416 genes.

What about the “genes up in DRG” value (DRG transcriptome; [2]) of the same compound?
The value was 297 genes.

And the “genes with changed expression in DRG” value (DRG transcriptome; Cis+TTI-101 vs. cisplatin alone, 4 hours after fourth dose)?
The value was 1,713 genes.

What about the “genes altered in both groups with overall opposite expression pattern (normalized)” value (DRG transcriptome; PBS vs. Cis and Cis vs. Cis+TTI-101) of the same compound?
Its value is 443 genes.

What about the “genes with changed expression in DRG” value (DRG transcriptome; TTI-101 vs. PBS) of the same compound?
Its value is 2,154 genes.

And the “VEGF signaling (IPA comparison analysis)” value (DRG transcriptome; cisplatin-treated mice receiving TTI-101)?
Its value is “inhibited”.

And the “STAT3 activity in IPA mechanistic networks” value (DRG transcriptome; upstream regulator analysis of 1,713 DEG)?
The value was “reduced in all networks”.

And the “oxidative stress/pro-inflammatory phenotype of BMDM after STAT3 activation” value [1]?
The value was “reverses this oxidative stress/pro-inflammatory phenotype”.

And the “antalgic gait patterns/burrowing aversion” value (mice; [3])?
Its value is “net reduction”.

What about the “macrophage infiltration of the sciatic nerve” value (mice; [3]) of the same compound?
The value was “net reduction”.

What about the “mechanical and thermal hypersensitivity” value (mice; [3]) of the same compound?
Its value is “net reduction”.

And the “plasma and tissue levels / pY-STAT3 in macrophages in SN and DRG” value (mice; [3])?
Its value is “achieves levels in the plasma and tissue adequate to reduce levels of pY-STAT3”.

And the “pain hyper-sensitivity at 8 weeks post-CCI” value (mice; 8 weeks post-CCI)?
Its value is “sustained reversal”.
